In brackets after ≈: the same amount, converted by molar mass.
Tests used:
[1] = tested on: Staphylococcus epidermidis; assay: Antibacterial activity against methicillin resistant Staphylococcus epidermidis clinical isolate 19-6 assessed as inhibition of bacterial growth incubated for 18 to 24 hrs by broth microdilution method; assay type: functional; conditions: time 18-24 hrs
[2] = tested on: Klebsiella pneumoniae; assay: Antibacterial activity against carbapenem resistant Klebsiella pneumoniae clinical isolate 19-15 assessed as inhibition of bacterial growth incubated for 18 to 24 hrs by broth microdilution method; assay type: functional; conditions: time 18-24 hrs
[3] = tested on: Acinetobacter baumannii; assay: Antibacterial activity against carbapenem resistant Acinetobacter baumannii clinical isolate 19-8 assessed as inhibition of bacterial growth incubated for 18 to 24 hrs by broth microdilution method; assay type: functional; conditions: time 18-24 hrs
[4] = tested on: Staphylococcus epidermidis; assay: Antibacterial activity against methicillin resistant Staphylococcus epidermidis clinical isolate 19-5 assessed as inhibition of bacterial growth incubated for 18 to 24 hrs by broth microdilution method; assay type: functional; conditions: time 18-24 hrs
[5] = tested on: Klebsiella pneumoniae; assay: Antibacterial activity against carbapenem resistant Klebsiella pneumoniae clinical isolate 19-17 assessed as inhibition of bacterial growth incubated for 18 to 24 hrs by broth microdilution method; assay type: functional; conditions: time 18-24 hrs
[6] = tested on: Escherichia coli; assay: Antibacterial activity against Escherichia coli ATCC BAA-2523 assessed as inhibition of bacterial growth incubated for 18 to 24 hrs by broth microdilution method; assay type: functional; conditions: time 18-24 hrs
[7] = tested on: Staphylococcus aureus; assay: Antibacterial activity against Staphylococcus aureus ATCC 29213 assessed as inhibition of bacterial growth incubated for 18 to 24 hrs by broth microdilution method; assay type: functional; conditions: time 18-24 hrs
[8] = tested on: Escherichia coli; assay: Antibacterial activity against Escherichia coli clinical isolate 19-2 assessed as inhibition of bacterial growth incubated for 18 to 24 hrs by broth microdilution method; assay type: functional; conditions: time 18-24 hrs
[9] = Cytotoxicity against human HK-2 cells assessed as inhibition of cell growth incubated for 72 hrs by CCK-8 assay; assay type: toxicity, cell-based
[10] = tested on: Pseudomonas aeruginosa; assay: Antibacterial activity against Pseudomonas aeruginosa ATCC 27853 assessed as inhibition of bacterial growth incubated for 18 to 24 hrs by broth microdilution method; assay type: functional; conditions: time 18-24 hrs
[11] = tested on: Pseudomonas aeruginosa; assay: Antibacterial activity against carbapenem resistant Pseudomonas aeruginosa clinical isolate 19-3 assessed as inhibition of bacterial growth incubated for 18 to 24 hrs by broth microdilution method; assay type: functional; conditions: time 18-24 hrs
[12] = tested on: Pseudomonas aeruginosa; assay: Antibacterial activity against carbapenem resistant Pseudomonas aeruginosa clinical isolate 17-1 assessed as inhibition of bacterial growth incubated for 18 to 24 hrs by broth microdilution method; assay type: functional; conditions: time 18-24 hrs
[13] = tested on: Staphylococcus aureus; assay: Antibacterial activity against methicillin resistant Staphylococcus aureus ATCC 33591 assessed as inhibition of bacterial growth incubated for 18 to 24 hrs by broth microdilution method; assay type: functional; conditions: time 18-24 hrs
[14] = tested on: Escherichia coli; assay: Antibacterial activity against KPC producing Escherichia coli ATCC BAA-2340 assessed as inhibition of bacterial growth incubated for 18 to 24 hrs by broth microdilution method; assay type: functional; conditions: time 18-24 hrs
[15] = tested on: Pseudomonas aeruginosa; assay: Antibacterial activity against Pseudomonas aeruginosa clinical isolate 19-1 assessed as inhibition of bacterial growth incubated for 18 to 24 hrs by broth microdilution method; assay type: functional; conditions: time 18-24 hrs
[16] = Selectivity index, ratio of IC50 for cytotoxicity against human HK-2 cells to MIC for antibacterial activity against Escherichia coli ATCC BAA-2523; assay type: toxicity, cell-based
[17] = tested on: Klebsiella pneumoniae; assay: Antibacterial activity against KPC producing Klebsiella pneumoniae ATCC BAA-1705 assessed as inhibition of bacterial growth incubated for 18 to 24 hrs by broth microdilution method; assay type: functional; conditions: time 18-24 hrs
[18] = tested on: Escherichia coli; assay: Antibacterial activity against Escherichia coli NCTC 13353 assessed as inhibition of bacterial growth incubated for 18 to 24 hrs by broth microdilution method; assay type: functional; conditions: time 18-24 hrs
[19] = tested on: Acinetobacter baumannii; assay: Antibacterial activity against oxacillinase-27 producing Acinetobacter baumannii NCTC 13304 assessed as inhibition of bacterial growth incubated for 18 to 24 hrs by broth microdilution method; assay type: functional; conditions: time 18-24 hrs

| SMILES | MIC [1] [µg/mL] | MIC [2] [µg/mL] | MIC [3] [µg/mL] | MIC [4] [µg/mL] | MIC [5] [µg/mL] | MIC [6] [µg/mL] | MIC [7] [µg/mL] | MIC [8] [µg/mL] | IC50 at 72 h [9] [µg/mL] | MIC [10] [µg/mL] | MIC [11] [µg/mL] | MIC [12] [µg/mL] | MIC [13] [µg/mL] | MIC [14] [µg/mL] | MIC [15] [µg/mL] | selectivity ratio [16] | MIC [17] [µg/mL] | MIC [18] [µg/mL] | MIC [19] [µg/mL] |
| --- | --- | --- | --- | --- | --- | --- | --- | --- | --- | --- | --- | --- | --- | --- | --- | --- | --- | --- | --- |
| CCCCCCCCCC(=O)N[C@H](CCN)C(=O)N[C@H]1CCNC(=O)[C@H]([C@@H](C)O)NC(=O)[C@H](CCN)NC(=O)[C@H](CCN)NC(=O)[C@H](CC(C)C)NC(=O)[C@H](CC(C)C)NC(=O)[C@H](CCN)NC1=O | 16 (≈ 16.3 µM) | > 64 | > 64 | 4 (≈ 4.07 µM) | > 64 | > 64 | > 64 | > 64 | 58.7 (≈ 59.8 µM) | > 64 | > 64 | > 64 | > 64 | 64 (≈ 65.2 µM) | > 64 | < 0.9 | > 64 | > 64 | > 64 |
| CCCCCCC[C@@H](O)CC(=O)N[C@@H](CCN)C(=O)N[C@H](CCN)C(=O)N[C@H]1CCNC(=O)[C@H](CC(C)C)NC(=O)[C@H](CCN)NC(=O)[C@H](CCN)NC(=O)[C@H](Cc2ccccc2)NC(=O)[C@@H](CC(C)C)NC(=O)[C@H](CCN)NC1=O | 4 (≈ 3.5 µM) | 32 (≈ 28 µM) | 16 (≈ 14 µM) | 1 (≈ 0.874 µM) | 64 (≈ 55.9 µM) | 8 (≈ 6.99 µM) | 8 (≈ 6.99 µM) | 16 (≈ 14 µM) | 18.5 (≈ 16.2 µM) | 2 (≈ 1.75 µM) | 4 (≈ 3.5 µM) | 2 (≈ 1.75 µM) | 16 (≈ 14 µM) | 16 (≈ 14 µM) | 2 (≈ 1.75 µM) | 2.3 | 32 (≈ 28 µM) | 32 (≈ 28 µM) | 16 (≈ 14 µM) |
| CCCCCCCCCC(=O)N[C@H](CCN)C(=O)N[C@H]1CCNC(=O)[C@H]([C@@H](C)O)NC(=O)[C@H](CCN)NC(=O)[C@H](CCN)NC(=O)[C@H](CC(C)C)NC(=O)[C@@H](CC(C)C)NC(=O)[C@H](CCCCN)NC1=O | 32 (≈ 31.7 µM) | > 64 | > 64 | 8 (≈ 7.92 µM) | > 64 | > 64 | > 64 | > 64 | 196 (≈ 193 µM) | > 64 | > 64 | > 64 | > 64 | > 64 | > 64 | < 3.1 | > 64 | > 64 | > 64 |

— ChEMBL document CHEMBL5380795, “Design, Synthesis, and Bioactivity Investigation of Cyclic Lipopeptide Antibiotics Containing Eight to Nine Amino Acids” (J Med Chem, 2023)
